The subject of one data set is CA1USR mAb. Put plainly: Competition enzyme immunoassay (EIA): nucleotide competitors against CA1USR mAb binding to 2′-deoxy-2′-C-allyl Uridine-KLH. Also on record: species or system murine. Conditions: competitor nucleotides 500 to 7.8 μg/ml preincubated with CA1USR mAb; DNA-Bind plates coated with 2′-deoxy-2′-C-allyl Uridine-KLH; FIG. 2. On the procedure:
N-oxy-succinimide ester derivatized 96 well plates (DNA-Bind; Costar/Corning, Corning, N.Y.) were coated overnight at room temperature with 50 ng/well of 2′-deoxy-2′-C-allyl Uridine-KLH. After two washes with phosphate buffered saline, 0.1% Tween (PBS-T), plates were blocked for 1 h with PBS plus 1% casein (Pierce, Rockford, Ill.). Hybridoma supernatant was incubated on the plates for 1 h, after which wells were washed 4 times with PBS-T. Positive wells were detected with peroxidase-conjugated F(ab)′2 Goat anti-mouse IgG (Pel-Freez, Rogers, Ark.), and developed with TMB substrate (Kirkegaard and Perry, 2 component; Gaithersburg, Md.). Plates were read on a Molecular Dynamics plate reader (Molecular Dynamics, Sunnyvale, Calif.) at 450 nm with 595 nm correction.
DNA-Bind plates were coated overnight with 50 ng/well of 2′-deoxy-2′-C-allyl Uridine-conjugated KLH. 60 μl volumes of the purified CA1USR mAb, at a concentration of 500 ng/ml, were incubated at 37° C. for 30 min with 60 μl volumes of a series of concentrations of competitor nucleotides, from a concentration of 500 to 7.8 μg/ml. The antibody-competitor mixtures were then plated on the 2′-C-allyl-KLH coated DNA-Bind plates, and the EIA proceeded as described for the fusion screening assay.

The nature of data set [1]: Immunohistochemistry with CA1USR mAb on kidneys of ribozyme-treated mice (in vivo localization). To be noted: for CA1USR mAb immunoreactivity (staining) in kidney: 3 subcutaneous injections of 100 mg/kg, kidney sections stained with CA1USR mAb 5 μg/ml. On the procedure:
Tissues were harvested from mice injected subcutaneously with either saline or a ribozyme from 60 to 120 min after injection. Animals were perfused with normal saline, then with a solution of 3% paraformaldehyde, 0.5% gluteraldehyde prior to tissue harvest. The tissue was placed in a 30% sucrose solution at 4° C. overnight, then removed, and frozen in a Gentle Jane (Instrumedics; Hackensack, N.J.) Snap-Freezing System with Cryo-Gel Embedding Medium (Instrumedics). Five micron (μm) sections were cut and placed on slides; the slides were allowed to air dry. Prior to staining, slides were quenched in 3% hydrogen peroxide and 0.5% horse serum in PBS, then blocked with M.O.M. Mouse Ig Blocking Reagent (Vector Labs, Burlingame, Calif.) for 1 h, washed with PBS, and stained with the CA1USR MAb at 5 μg/ml in M.O.M. diluent for 30 min. After washing, slides were incubated with M.O.M. Biotinylated Anti-Mouse IgG Reagent for 10 min, washed, and incubated with Vectastain Elite ABC Reagent for 5 min, then developed in DAB chromogen (Vector Labs). Slides were rinsed, counterstained with hematoxylin (Richard-Allan Scientific, Kalamazoo, Mich.), dehydrated, and cover-slipped. Slides were viewed on a Nikon Microphot FXA microscope.

On to `C=CC[C@@H]1[C@H](O)[C@@H](CO)O[C@H]1n1ccc(=O)[nH]c1=O` [2′-deoxy-2′-C-allyl Uridine], for which the “inhibition of binding of CA1USR mAb to 2′-deoxy-2′-C-allyl Uridine-KLH” value with CA1USR mAb is reported as “able to inhibit”.

Regarding “ANGIOZYME® ribozyme: synthetic 35-mer hammerhead ribozyme directed against VEGFR-1 mRNA with 2′-deoxy-2′-C-allyl Uridine at U4 (GAGUUGCUGAUGAGGCCGAAAGGCCGAAAGUCUG; 2'-deoxy-2'-C-allyl uridine at U4, chemistry not fully specified)”, the “Hematoxylin and eosin microscopy of granular structures in treated kidneys” value in data set [1] (3 subcutaneous 100 mg/kg injections, kidney) is reported as “basophilic in character”. Moreover, the “CA1USR mAb immunoreactivity (staining) in kidney” value in data set [1] is reported as “intense 2′-deoxy-2′-C-allyl Uridine mAb immunoreactivity”.

In the case of “unmodified HERZYME™ ribozyme: ribozyme targeted to Her2 mRNA, structure different from the hammerhead motif (GCAGUGGCCGAAAGGCGAGUGAGGUCUAGCUCA; called unmodified, meaning without 2'-C-allyl U14, full chemistry not given here)”, the “CA1USR mAb immunoreactivity (staining) in kidney” value in data set [1] is given as “no staining”.

Source of the values: patent US7071311B2, “Antibodies having specificity for 2′-C-allyl nucleic acids” (Sirna Therapeutics, Inc., priority 2002, dated 2006).
